Measured values published in US20090061470A1, “Use of Human Hepatocytes for Determining Liver Function and Liver Regeneration” (priority 2006, published 2009).

Experiments:
[1] = tested on: cytochrome P450 1A2; conditions: Hep G2/C3A-cells; cited from earlier work
[2] = tested on: Hep G2/C3A-cells; conditions: 0.03 mM added to the medium; experimental stage
Procedure: Synthesis Capacity, for Example Micro-Albumin and Other Protein Synthesis of the Hep G2/C3A Cells (13).
The HepG2/C3A-cells are seeded in 24 well cell culture plates in a concentration of 250,000 cells/well for three days and 0.5 ml plasma from test persons+0.25 ml medium is added. The cells are then rinsed once with medium and after that are incubated with fresh medium (1 ml) for three days. After that micro albumin is determined nephelometrically from 0.2 ml cell culture medium and duplicated (+medium control). Each test batch with plasma from test persons is also duplicated.
Consequently the test period can also be shortened to 48 hours and the cells release measurable quantities of fibrinogen and transferrine (plasma proteins) that can be measured and duplicated in 200 μl cell culture medium.

Cc1ccc2cc3c(ccc4ccccc43)c3c2c1CC3 [methylcholanthrene, 3-methylcholanthren]
activity of cytochrome P450 1A2 after induction, relative to the initial value [1]: 40 times the initial value

NCCC[C@H](N)C(=O)O.O=C(O)CCC(=O)C(=O)O [ornithine alpha-cetoglutarates]
synthesis capacity of the Hep G2/C3A-cells [2]: increased
